Measured values from the CheMixHub viscosity set.

Assay: xn = mol fraction of the nth substance listed

CC(=O)CC(C)C + CCCCOC(C)=O
298.15 K, 101.33 kPa
Conditions | viscosity [mPa·s]
x1 = 0.128 | 0.66
x1 = 0.2471 | 0.643
x1 = 0.3594 | 0.628
x1 = 0.4715 | 0.612
x1 = 0.5881 | 0.595
x1 = 0.6863 | 0.583
x1 = 0.7901 | 0.57
x1 = 0.8902 | 0.556

O=C1CCCCC1 + CCCCOC(C)=O
viscosity [mPa·s], 101 kPa
Conditions | 298.15 K | 303.15 K | 308.15 K | 313.15 K
x1 = 0.1162 | 0.689 | – | – | –
x1 = 0.2283 | 0.732 | – | – | –
x1 = 0.3365 | 0.788 | – | – | –
x1 = 0.441 | 0.871 | – | – | –
x1 = 0.542 | 0.976 | – | – | –
x1 = 0.6397 | 1.109 | – | – | –
x1 = 0.7341 | 1.281 | – | – | –
x1 = 0.8256 | 1.478 | – | – | –
x1 = 0.9142 | 1.731 | – | – | –
x2 = 0.0814 | 1.757 | 1.589 | 1.445 | 1.321
x2 = 0.165 | 1.536 | 1.393 | 1.274 | 1.166
x2 = 0.2509 | 1.362 | 1.235 | 1.137 | 1.045
x2 = 0.3438 | 1.214 | 1.101 | 1.016 | 0.934
x2 = 0.4391 | 1.099 | 0.999 | 0.922 | 0.852
x2 = 0.5412 | 0.995 | 0.904 | 0.838 | 0.775
x2 = 0.6451 | 0.914 | 0.83 | 0.774 | 0.715
x2 = 0.7589 | 0.836 | 0.763 | 0.711 | 0.66
x2 = 0.8707 | 0.767 | 0.7 | 0.658 | 0.61

CCOCC + CCCO
101 kPa
Conditions | viscosity [mPa·s]
298.15 K, x1 = 0.09896 | 1.404
298.15 K, x1 = 0.1949 | 1.024
298.15 K, x1 = 0.3032 | 0.753
298.15 K, x1 = 0.4198 | 0.562
298.15 K, x1 = 0.5476 | 0.427
298.15 K, x1 = 0.6864 | 0.336
298.15 K, x1 = 0.8353 | 0.272
303.16 K, x1 = 0.07 | 1.682
303.16 K, x1 = 0.15 | 1.591
303.16 K, x1 = 0.25 | 1.417
303.16 K, x1 = 0.37 | 1.237
303.16 K, x1 = 0.47 | 0.8879
303.16 K, x1 = 0.59 | 0.6163
303.16 K, x1 = 0.73 | 0.4922
303.16 K, x1 = 0.78 | 0.3645
303.16 K, x1 = 0.92 | 0.2804

O=C1CCCCC1 + CCCO
303.15 K, 101 kPa
Conditions | viscosity [mPa·s]
x1 = 0.1012 | 1.452
x1 = 0.2601 | 1.283
x1 = 0.4199 | 1.243
x1 = 0.5794 | 1.3
x1 = 0.7393 | 1.392
x1 = 0.8997 | 1.576

CCCCCCO + CCO
Conditions | viscosity [mPa·s]
298.15 K, 101.33 kPa, x2 = 0.1094 | 4.001
298.15 K, 101.33 kPa, x2 = 0.2099 | 3.537
298.15 K, 101.33 kPa, x2 = 0.3973 | 2.828
298.15 K, 101.33 kPa, x2 = 0.5015 | 2.484
298.15 K, 101.33 kPa, x2 = 0.5903 | 2.214
298.15 K, 101.33 kPa, x2 = 0.6925 | 1.894
298.15 K, 101.33 kPa, x2 = 0.8012 | 1.574
298.15 K, 101.33 kPa, x2 = 0.899 | 1.305
303.15 K, 101 kPa, x2 = 0.1433 | 3.364
303.15 K, 101 kPa, x2 = 0.2814 | 2.887
303.15 K, 101 kPa, x2 = 0.487 | 2.241
303.15 K, 101 kPa, x2 = 0.6448 | 1.807
303.15 K, 101 kPa, x2 = 0.7691 | 1.509
303.15 K, 101 kPa, x2 = 0.8692 | 1.28
303.15 K, 101 kPa, x2 = 0.9524 | 1.093

CCOCC + CCO
298.15 K, 101 kPa
Conditions | viscosity [mPa·s]
x1 = 0.1577 | 0.741
x1 = 0.3593 | 0.478
x1 = 0.4569 | 0.4
x1 = 0.5301 | 0.359
x1 = 0.6268 | 0.315
x1 = 0.6925 | 0.29
x1 = 0.7978 | 0.264

CCS + CCO
298.15 K, 101 kPa
Conditions | viscosity [mPa·s]
x1 = 0.026 | 1.048
x1 = 0.072 | 0.9731
x1 = 0.0942 | 0.9305
x1 = 0.1067 | 0.8559
x1 = 0.1258 | 0.8385
x1 = 0.2634 | 0.6525
x1 = 0.2941 | 0.6119
x1 = 0.3753 | 0.5821
x1 = 0.6123 | 0.4083
